These results are taken from PubChem BioAssay (NCI).

Some test systems named below: CAKI-1 renal; LOX IMVI melanoma; 786-0 renal; U251 CNS; NCI/ADR-RES ovarian; HT29 colon; TK-10 renal; SK-OV-3 ovarian; SK-MEL-28 melanoma; HCC-2998 colon.
Test in all cases: NCI tumour cell line growth inhibition, 48 h

Where “and” joins values, the source holds several entries; their conditions need not be identical. Equal entries are not always repeated.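 Compound exposure: 48 hours, 5 concentrations, 96-well plates. GI50: concentration for 50% inhibition of growth. TGI: total growth inhibition.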

As to `COC1(C(=O)N[C@@H](C)c2ccc(-n3cc(F)cn3)nc2)CCC(c2nc(C)cc(Nc3cc(C)[nH]n3)n2)CC1` (stereo partly drawn), the GI50 was 0.889 µM in the test with CAKI-1 renal; 0.714 µM with LOX IMVI melanoma; 1.33 µM in the test with 786-0 renal; 1.25 µM in the test on U251 CNS; 3.74 µM in the test with NCI/ADR-RES ovarian; 2.31 µM in the test on HT29 colon. Besides, the GI50 in the test on TK-10 renal was 1.96 µM; in the test on SK-OV-3 ovarian, 1.11 µM; with SK-MEL-28 melanoma it was 10.2 µM; in the test on HCC-2998 colon, 11.1 µM. The TGI in the test on CAKI-1 renal was 2.23 µM; in the test with LOX IMVI melanoma, 2.54 µM; in the test with 786-0 renal it was 8 µM; in the test with U251 CNS, 22.6 µM; with NCI/ADR-RES ovarian, 17.7 µM; with HT29 colon, 22.4 µM. For the same compound, the TGI in the test on TK-10 renal was 8.97 µM; in the test on SK-OV-3 ovarian, 5.07 µM; in the test on SK-MEL-28 melanoma, 22.5 µM; in the test with HCC-2998 colon it was 23.3 µM.
For the compound `CNC(=O)c1cncc(/C=C/c2ccccc2C)c1`, the GI50 in the test on CAKI-1 renal, in the test on LOX IMVI melanoma, in the test on 786-0 renal, with U251 CNS, in the test on NCI/ADR-RES ovarian and in the test with HT29 colon was > 25 µM in each case. Further, the GI50 in the test on TK-10 renal, with SK-OV-3 ovarian, in the test with SK-MEL-28 melanoma and in the test with HCC-2998 colon was > 25 µM each time. Moreover, the TGI in the test on CAKI-1 renal, in the test on LOX IMVI melanoma, in the test with 786-0 renal, with U251 CNS, in the test with NCI/ADR-RES ovarian and in the test on HT29 colon was > 25 µM in each case. The TGI with TK-10 renal, with SK-OV-3 ovarian, in the test with SK-MEL-28 melanoma and in the test with HCC-2998 colon was > 25 µM in each case.
Take `O=CNc1c(Cl)cc2c(c1Cl)Cc1cc([N+](=O)[O-])ccc1-2`: the GI50 with CAKI-1 renal is 8.34 µM; in the test on LOX IMVI melanoma, 4.59 µM; with 786-0 renal, 20 µM; in the test on U251 CNS, 5.87 µM; in the test with NCI/ADR-RES ovarian, 4.49 µM; in the test on HT29 colon, 4.41 µM. Further, the GI50 in the test on TK-10 renal is 5.63 µM; with SK-OV-3 ovarian it was 9.92 µM; with SK-MEL-28 melanoma it was 20.2 µM; with HCC-2998 colon it was 5.84 µM. Besides, the TGI is > 91.2 µM with CAKI-1 renal; > 54.7 µM with LOX IMVI melanoma; > 77 µM in the test with 786-0 renal; > 76.3 µM in the test with U251 CNS; 38.3 µM in the test on NCI/ADR-RES ovarian; > 54.8 µM in the test with HT29 colon. Besides, the TGI is > 59.5 µM in the test on TK-10 renal, 41.5 µM with SK-OV-3 ovarian, > 100 µM with SK-MEL-28 melanoma and 39.9 µM in the test with HCC-2998 colon.
Regarding `COc1cc(C2c3cc4c(cc3[C@@H](Nc3ccc(C#N)cc3)C3COC(=O)[C@H]23)OCO4)cc(OC)c1O` (stereo partly drawn), the GI50 in the test on CAKI-1 renal is 0.228 µM; in the test on 786-0 renal it was 0.112 µM; in the test with U251 CNS, 0.879 µM; with NCI/ADR-RES ovarian, 6.59 µM and 2.68 µM; in the test with HT29 colon it was 1.61 µM; in the test with TK-10 renal, 1.62 µM. The GI50 with SK-OV-3 ovarian was 3.29 µM and 1.34 µM; with SK-MEL-28 melanoma, 2.89 µM; in the test on HCC-2998 colon, 1.02 µM. Further, the TGI in the test with CAKI-1 renal was 4.37 µM and 2.52 µM; in the test with LOX IMVI melanoma it was 9.52 µM; in the test on 786-0 renal it was 1.92 µM and 1.19 µM; with NCI/ADR-RES ovarian, 11.6 µM and 41.3 µM and 21.2 µM; in the test on HT29 colon, 11.6 µM and 14 µM; with TK-10 renal it was 17.4 µM and 4.49 µM. Further, the TGI is 48.8 µM and 11.3 µM and > 100 µM with SK-OV-3 ovarian; 28.2 µM and > 100 µM in the test on SK-MEL-28 melanoma; 5.11 µM and 2.11 µM with HCC-2998 colon.
Regarding `CCN(CC)c1ccc(C(=C2C=CC(=[N+](CC)Cc3cccc(S(=O)(=O)O)c3)C=C2)c2ccc(N(CC)Cc3cccc(S(=O)(=O)O)c3)cc2)cc1`, the GI50 is 24 µM in the test with CAKI-1 renal; 4.84 µM in the test with LOX IMVI melanoma; 12.9 µM with 786-0 renal; 3.58 µM in the test with U251 CNS; > 100 µM with NCI/ADR-RES ovarian; 3.4 µM with HT29 colon. The GI50 was 18.8 µM in the test with TK-10 renal, 5.04 µM with SK-OV-3 ovarian, 15.6 µM in the test on SK-MEL-28 melanoma and 5.78 µM in the test on HCC-2998 colon. In addition, the TGI in the test on CAKI-1 renal was > 100 µM; in the test on LOX IMVI melanoma it was > 100 µM; in the test on 786-0 renal, 98.9 µM; in the test with U251 CNS it was > 100 µM; in the test with NCI/ADR-RES ovarian it was > 100 µM; with HT29 colon it was > 88.9 µM. Besides, the TGI in the test on TK-10 renal was > 100 µM; in the test with SK-OV-3 ovarian, 27.1 µM; in the test with SK-MEL-28 melanoma it was > 100 µM; in the test on HCC-2998 colon, > 100 µM.
In the case of `C1CCSCCCCSCCCCSCCCCSC1`, the TGI with CAKI-1 renal, in the test with LOX IMVI melanoma, in the test on 786-0 renal, in the test with U251 CNS, with NCI/ADR-RES ovarian and in the test with HT29 colon was > 100 µM each time. Moreover, the TGI with TK-10 renal, in the test on SK-OV-3 ovarian, in the test on SK-MEL-28 melanoma and in the test with HCC-2998 colon was > 100 µM in each case.
In the case of `C=CCc1c2c(c(OC)c3ccoc13)C(=O)/C(=C/c1ccccc1OC)O2`, the GI50 in the test with CAKI-1 renal is 3.15 µM; in the test on LOX IMVI melanoma, 3.13 µM; in the test on 786-0 renal, 6.28 µM; in the test with U251 CNS it was 3.53 µM; with NCI/ADR-RES ovarian it was 2.82 µM; with HT29 colon it was 3.98 µM. The GI50 with TK-10 renal was 6.5 µM; in the test on SK-OV-3 ovarian, 5.45 µM; in the test on SK-MEL-28 melanoma it was 5.21 µM; with HCC-2998 colon, 2.85 µM. In addition, the TGI in the test on CAKI-1 renal was 35.2 µM; with LOX IMVI melanoma, 27.1 µM; in the test on 786-0 renal, > 100 µM; in the test on U251 CNS, > 100 µM; in the test with NCI/ADR-RES ovarian it was 10.8 µM; in the test with HT29 colon, > 100 µM. Also, the TGI is > 100 µM in the test on TK-10 renal, 35.1 µM in the test on SK-OV-3 ovarian, > 100 µM in the test on SK-MEL-28 melanoma and 7.85 µM with HCC-2998 colon.
